Data from US6352985B1, “Benzimidazole compounds” (Fujisawa Pharmaceutical Co., Ltd., priority 1995, dated 2002).

tested on: 3T3-L1 cells (pre-adipocytes); assay: Stimulatory activity of triglyceride (TG) accumulation in 3T3-L1 cells (pre-adipocytes); assay type: cell-based; settings: test compound 1 × 10^−5 M with insulin; 1×10^−6 M pioglitazone defined as 100%, insulin (+) without the chemical agent defined as 0%
Experimental: Stimulatory activity of triglyceride (TG) accumulation in 3T3-L1 cells (pre-adipocytes)
3T3-L1 cells just before a confluent state were prepared in an F75 flask. The medium was removed, and the residue was washed twice with 5 ml of PBS (−). The cells were detached using a solution of EDTA and trypsin. Ten milliliters of the medium were added thereto to form a suspension. This suspension was collected in a 50-milliliter centrifuge tube, and was subjected to centrifugation at 1,000 rpm for 5 minutes. Thus, the cells were precipitated, and the supernatant was removed. The cells were re-suspended in 20 ml of the medium, and the number of cells was counted. The suspension was adjusted such that the concentration of the cells reached 6×10^4 cells/ml, and was inoculated into a 24-well plate in an amount of 1 ml/well. In this state, the incubation was conducted in an incubator at 37° C. in 5% CO2 for 2 days.
A solution of 1-mM dexamethasone and 500-mM IBMX was prepared in DMSO. […]
Four to five days after the addition of the test chemical agent and the insulin solution, the 24-well plate was withdrawn from the incubator. […] Subsequently, the residue was extracted twice with isopropyl alcohol, and TG was measured at a wavelength of 410 nm using a TG-measuring kit (acetyl-acetone method). […]

For `O=C(NS(=O)(=O)Cc1ccccc1)c1ccc2nc(C3CC3)n(Cc3ccccc3F)c2c1` [6-benzylsulfonylcarbamoyl-2-cyclopropyl-1-(2-fluorobenzyl)benzimidazole], the “Stimulatory activity of TG accumulation (%)” value was 38.2%.

tested on: db/db mice; assay: Test for activity of decreasing plasma glucose using db/db mice; assay type: in vivo; settings: female db/db mice, dose 10 mg/kg mixed with powdered chow for 14 days; difference between db/db and +/+ mouse defined as 100%
Experimental: Test for activity of decreasing plasma glucose using db/db mice
Five-week-old female mice [C57BL/KsJ-dbm db+/db+, C57BL/KsJ-dbm +m/+m (Jackson Laboratory) were purchased, and were kept for 2 to 3 weeks. Then, these mice were used in the test.
A test compound was mixed with a powdered chow (CE-2, made by Nippon Clea) using a mortar. According to the amount of food intake of the mouse, the mixing ratios, 0.1%, 0.03%, and 0.01% corresponded to 100, 30, and 10 mg/kg body weight, respectively. The mixed chow was changed twice a week. The feed amount and the remaining amount were recorded, and the intake was calculated from the difference therebetween.
The female db/db mice were grouped according to the body weight, the plasma glucose and the plasma triglyceride concentrations. Then, the mixture containing the test compound was administered to the mice for 14 days (from 8 to 10 weeks old). […] Plasma glucose, triglyceride, and insulin concentrations were measured on day 0 and day 14 as well as plasma glucose and triglyceride concentrations on day 7. The body weight was measured on day 0, day 7, and day 14. […]
The plasma glucose was measured by a glucose oxidase method (Glucose CII-Test Wako made by Wako Pure Chemical Industries, Ltd.) using from 10 to 15 μl of plasma. The plasma triglyceride concentration was measured by a GPO-p-chlorophenol method (Triglyceride G-Test Wako made by Wako Pure Chemical Industries, Ltd.) or a GPO-DAOS method (Triglyceride E-Test Wako) using from 10 to 15 μl of plasma. […] The plasma insulin concentration was measured by radio immuno assay method (Phadesef Insulin RIA Kit made by Cabi Pharmacia) using 20 μl of plasma (which can be stored at −20° C.).
The difference in the plasma glucose and the plasma triglyceride concentrations betweeen the db/db mouse and the +/+ mouse was defined as 100%, and the rate (%) of decrease in the plasma glucose and the plasma triglyceride concentrations of the group to which the test compound was administered was calculated.

With `CCCCS(=O)(=O)NC(=O)c1ccc2nc(C)n(Cc3ccc(-c4ccccc4)cc3)c2c1` [Compound (172), 1-(biphenyl-4-ylmethyl)-6-(1-butanesulfonylcarbamoyl)-2-methylbenzimidazole] the “Activity of decreasing plasma glucose (%)” value was 70-80%.

same assay, conditions: female db/db mice, dose 30 mg/kg mixed with powdered chow for 14 days; difference between db/db and +/+ mouse defined as 100%

First: Cc1nc2ccc(C(=O)NS(=O)(=O)c3ccccc3)cc2n1Cc1ccccc1Cl [Compound (163), 6-benzenesulfonylcarbamoyl-1-(2-chlorobenzyl)-2-methylbenzimidazole]
Second: O=C(NS(=O)(=O)c1ccccc1)c1ccc2nc(C3CC3)n(Cc3ccccc3F)c2c1 [Compound (177), 6-benzenesulfonylcarbamoyl-2-cyclopropyl-1-(2-fluorobenzyl)benzimidazole]
The “Activity of decreasing plasma glucose (%)” value of the first is higher: 72% for the first, 34.5% for the second.

tested on: not given; assay: not given; settings: not given

First: Nc1nc2ccc(C(=O)NS(=O)(=O)c3ccccc3)cc2n1Cc1ccc(-c2ccccc2)cc1 [Compound (231), 2-amino-6-benzenesulfonylcarbamoyl-1-(biphenyl-4-ylmethyl)benzimidazole]
Second: CNc1nc2ccc(C(=O)NS(=O)(=O)c3ccccc3)cc2n1Cc1ccc(-c2ccccc2)cc1 [Compound (230), 6-benzenesulfonylcarbamoyl-1-(biphenyl-4-ylmethyl)-2-methylaminobenzimidazole]
The melting point of the first is higher: 352.5 to 355 °C for the first, 225 to 228 °C for the second.

First: Cc1nc2ccc(CCC(=O)NS(=O)(=O)c3ccccc3)cc2n1Cc1ccccc1Cl [Compound (266), N-benzenesulfonyl-3-[1-(2-chlorobenzyl)-2-methylbenzimidazole-6-yl]propionamide]
Second: Cc1nc2ccc(C(=O)NS(=O)(=O)c3ccccc3)cc2n1Cc1ccccc1Cl [Compound (163), 6-benzenesulfonylcarbamoyl-1-(2-chlorobenzyl)-2-methylbenzimidazole]
The melting point of the first is lower: 229.8 to 233 °C for the first, 273.5 to 274.3 °C for the second.

First: Cc1nc2ccc(C(=O)NS(=O)(=O)Cc3ccccc3)cc2n1Cc1ccccc1Cl [Compound (218), 1-(2-chlorobenzyl)-2-methyl-6-(α-toluenesulfonylcarbamoyl)benzimidazole]
Second: Cc1nc2ccc(C(=O)NS(=O)(=O)c3ccccc3Cl)cc2n1Cc1ccccc1Cl.N [Compound (222), 6-(2-chlorobenzenesulfonylcarbamoyl)-1-(2-chlorobenzyl)-2-methylbenzimidazole ammonium salt]
The melting point of the first is lower: 193 to 196 °C for the first, 264 to 267 °C for the second.

First: Cc1nc2ccc(C(=O)NS(=O)(=O)c3ccc(C(C)(C)C)cc3)cc2n1Cc1ccccc1Cl.[Na]
Second: Cc1nc2ccc(C(=O)NS(=O)(=O)c3ccc(C(F)(F)F)cc3)cc2n1Cc1ccccc1Cl [Compound (221), 1-(2-chlorobenzyl)-2-methyl-6-[4-(trifluoromethyl)benzenesulfonylcarbamoyl]benzimidazole]
The melting point of the first is higher: 359.5 to 362 °C for the first, 288 to 292 °C for the second.

First: CCCc1nc2ccc(C(=O)NS(=O)(=O)c3ccccc3)cc2n1Cc1ccc(-c2ccccc2)cc1.[K]
Second: CC(C)c1nc2ccc(C(=O)NS(=O)(=O)c3ccccc3)cc2n1Cc1ccc(-c2ccccc2)cc1.[K]
The melting point of the first is lower: 279 to 282 °C for the first, 310.1 to 312.7 °C for the second.

Compared with `Cc1nc2ccc(C(=O)NS(=O)(=O)c3ccc([N+](=O)[O-])cc3)cc2n1Cc1ccccc1Cl` [Compound (220), 1-(2-chlorobenzyl)-2-methyl-6-(4-nitrobenzenesulfonylcarbamoyl)benzimidazole], `COc1ccc(S(=O)(=O)NC(=O)c2ccc3nc(C)n(Cc4ccccc4Cl)c3c2)cc1` [Compound (217), 1-(2-chlorobenzyl)-6-(4-methoxybenzenesulfonylcarbamoyl)-2-methylbenzimidazole] is lower in melting point: 330 to 332 °C for the first, 271 to 274 °C for the second.

First: Cc1ccc(C)c(S(=O)(=O)NC(=O)c2ccc3nc(C)n(Cc4ccccc4Cl)c3c2)c1 [Compound (219), 1-(2-chlorobenzyl)-6-(2,5-dimethylbenzenesulfonylcarbamoyl)-2-methylbenzimidazole]
Second: Cc1nc2ccc(C(=O)NS(=O)(=O)c3ccc4ccccc4c3)cc2n1Cc1ccccc1Cl.[Na]
The melting point of the first is lower: 266.5 to 267.5 °C for the first, 352 to 354.5 °C for the second.

First: CCCCS(=O)(=O)NC(=O)c1ccc2nc(O)n(Cc3ccc(Cl)cc3Cl)c2c1 [Compound (379), 6-(1-butanesulfonylcarbamoyl)-1-(2,4-dichlorobenzyl)-2-hydroxybenzimidazole]
Second: CCCCS(=O)(=O)NC(=O)c1ccc2nc(C)n(Cc3ccc(C(=O)c4ccccc4)cc3)c2c1 [Compound (373), 1-[(4-benzoyl)benzyl]-6-(1-butanesulfonylcarbamoyl)-2-methylbenzimidazole]
The melting point of the first is higher: 254 to 256 °C for the first, 111 to 112.4 °C for the second.

Compared with `O=C(NS(=O)(=O)c1ccccc1)c1ccc2nc(C3CC3)n(Cc3ccc(-c4ccccc4)cc3)c2c1.[K]`, `Cc1nc2ccc(C=CC(=O)NS(=O)(=O)c3ccccc3)cc2n1Cc1ccccc1Cl` [Compound (178), N-benzenesulfonyl-3-[1-(2-chlorobenzyl)-2-methylbenzimidazol-6-yl]acrylamide] is higher in melting point: 220.8 to 224.8 °C for the first, 243.1 to 244.3 °C for the second.

With `Cc1nc2ccc(C(=O)NS(=O)(=O)c3cccc4cccnc34)cc2n1Cc1ccccc1Cl.[Na]` the melting point was 348 to 352 °C (dec.).
With `Cc1nc2ccc(C(=O)NS(=O)(=O)c3ccc(Cl)cc3)cc2n1Cc1ccccc1Cl.[Na]` the melting point was 360 to 362 °C (dec.).
In the case of `Cc1nc2ccc(C(=O)NS(=O)(=O)c3cccc(Cl)c3)cc2n1Cc1ccccc1Cl` [Compound (209), 6-(3-chlorobenzenesulfonylcarbamoyl)-1-(2-chlorobenzyl)-2-methylbenzimidazole], the melting point is reported as 254.5 to 257.5 °C (dec.).
In the case of `Cc1nc2ccc(C(=O)NS(=O)(=O)C(F)(F)F)cc2n1Cc1ccccc1Cl.Cl`, the melting point is reported as 332 to 335 °C (dec.).
